Results on one substance are retold here after patent US7553821B2, “Methods for selectively modulating survivin apoptosis pathways” (Yale University, priority 2000, dated 2009).

The target of one experiment is T1, caspase-8 (Homo sapiens, UniProt Q14790).
T1 construct: endogenous in cells; host or cells: HeLa
Description: Co-immunoprecipitation of survivin and caspase-8 from HeLa cells. Conditions: transfected HeLa cells. The class given is binding. The method, then:
The experimental conditions are the same as in A, except that HA-survivin and HA-survivin(T34A) immunoprecipitates were separately immunoblotted with antibodies to caspase-8 or HA. S, supernatant of HA-survivin immunoprecipitate. Arrow, position of ˜55 kDa proform caspase-8.
Transfection experiments. For transient transfection, HeLa cells in C-6 tissue culture plates (Costar, Cambridge, Mass.) at ˜60-70% confluency, were incubated in 1 ml of serum-free OptiMEM medium (Life Technologies, Gaithersburg, Md.) for 20 min, and transfected with 2.5 μg of the various plasmid cDNAs plus 9 μl Lipofectamine (Life Technologies). After a 5 h incubation at 37° C., the mixture was aspirated and substituted with complete growth medium for 48-72 h. To generate stable YUSAC-2 transfectants, a survivin(T34A) cDNA was inserted into the HindIII-SpeI sites of the pTet-splice vector (Dr. D. Schatz, Yale University School of Medicine), downstream of the regulatory sequences of the Tet-resistance operon (TetO). YUSAC-2 cells were transfected with 0.8 μg pTet-T34A, 0.8 μg of the transactivation/selection plasmid ptTA-Neo and 5 μl Lipofectamine in 1 ml of OptiMem. […] Gated GFP-expressing cells were analyzed for DNA content by flow cytometry on a FACSort (Becton Dickinson, San Jose, Calif.) using a Cell Quest software. […]

Experiment [1] deals with YUSAC-2 human melanoma cells. The experiment in a line: Melanoma tumor formation in CB.17 immunodeficient mice. It counts as in vivo, CB.17 SCID/beige mice. As to the method: To determine whether interference with survivin function by regulated expression of survivin antagonists could block melanoma tumor formation in CB.17 immunodeficient mice, mice were monitored for 8 weeks following subcutaneous injection, and tumor measurements taken at 4- and 8-week time points (Table I). It was determined that YUSAC-2 cells consistently form localized tumors in 6 to 8-week-old female CB.17 SCID/beige mice (Taconic Farms, Germantown, N.Y.) approximately 3-4 weeks following subcutaneous injection of 1-3×10^6 cells. Animals were monitored for up to 4 months, and neither mortality nor gross metastasis is associated with increasing tumor size (up to 5000 mm^3) or ulceration. One day prior to injection, mice were shaved on the right flank, and the regular drinking water was replaced with 5% sucrose alone or containing […] tet as described (Shockett et al., 1995). Cells were harvested in log-phase growth, washed twice in PBS, resuspended in PBS (12×10^6 cells per ml) and injected (0.25 ml, 3×10^6 cells) subcutaneously. The drinking water was changed every 2-3 days. Tumor size was determined by the product of two perpendicular diameters and the height above the skin surface.
Table 1. Summary of tumor formation for all animals. CB.17 mice were injected with cells and tet was added or withheld from the drinking water. […]

T1 sequence (Q14790 whole entry): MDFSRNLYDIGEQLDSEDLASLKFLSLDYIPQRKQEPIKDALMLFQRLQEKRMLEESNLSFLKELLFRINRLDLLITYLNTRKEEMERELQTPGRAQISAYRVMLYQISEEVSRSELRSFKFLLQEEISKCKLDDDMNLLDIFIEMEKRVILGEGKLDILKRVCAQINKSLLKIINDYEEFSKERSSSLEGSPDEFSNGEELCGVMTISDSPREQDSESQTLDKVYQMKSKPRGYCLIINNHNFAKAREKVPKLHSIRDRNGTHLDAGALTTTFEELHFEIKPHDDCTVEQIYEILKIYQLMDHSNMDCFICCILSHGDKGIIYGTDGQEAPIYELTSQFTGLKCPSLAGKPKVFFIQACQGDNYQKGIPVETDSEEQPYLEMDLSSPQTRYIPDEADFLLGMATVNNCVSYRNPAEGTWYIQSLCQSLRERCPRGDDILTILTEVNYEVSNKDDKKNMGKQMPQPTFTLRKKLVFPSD

For “survivin(T34A): dominant-negative, non-phosphorylatable survivin mutant with Thr34→Ala substitution, expressed from transfected cDNA (also HA- or GFP-tagged)”, the “caspase-8 in immunoprecipitates by Western blotting” value with caspase-8 is recorded as “did not contain another upstream initiator caspase, caspase-8”. The “Tumor size (mean ± standard deviation, only mice with tumors)” value in experiment [1] (8 Weeks, F5.C4 cells s.c., tet absent) is given as 278 ± 116 mm^3. Besides, the “size and onset of tumors in tet-deprived animals compared to animals given tet” value in experiment [1] (F5.C4 cells, two tet-deprived animals with tumors) was “considerably smaller in size and appeared with a markedly delayed onset”.
